Experiment in all cases: NCI tumour cell line growth inhibition, 48 h
The subject of assay [1] is DMS 114 small cell lung.
Assay [2] deals with DMS 273 small cell lung.
The test system of assay [3] is LXFL 529 NSCLC.
For assay [4], the system named is M19-MEL melanoma.
The subject of assay [5] is RXF-631 renal.
The test system of assay [6] is P388 leukemia.
Assay [7] deals with P388/ADR leukemia.
The test system of assay [8] is SN12K1 renal.
Assay [9] concerns XF 498 CNS.

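How tested: cells in 96-well plates exposed to compound for 48 hours at five concentrations. TGI denotes the concentration required for complete inhibition of growth.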 Where only a bound is given, the exact number is not on record here.

Take `O=C(O)CNCc1c2ccccc2[n+]([O-])c2ccccc12`: the TGI in assay [1], in assay [2], in assay [3], in [4] and in [5] was over 100 µM throughout.
With `CSc1sc(=S)sc1SC`, the TGI in [1], in assay [2], in assay [4], in [6], in assay [7] and in [8] was over 100 µM in each case. For the same compound, the TGI in assay [9] is over 100 µM.
With `O=C(O)C(Br)Cc1ccc2c(c1)OCO2` (configuration not stated), the TGI in [1] was over 100 µM; in assay [3] it was over 100 µM; in assay [4], over 100 µM; in assay [9], 89.3 µM.
For `O=C1c2ccccc2C(=O)c2c(O)c(O)cc(O)c21`, the TGI in [2] was over 100 µM; in assay [3], over 100 µM; in [4], over 100 µM; in assay [5] it was over 100 µM; in assay [9], 86.3 µM.
Regarding `Nc1nncs1`, the TGI in assay [1] is over 5000 µM; in [2], over 5000 µM; in [4], over 4550 µM; in assay [6], 2670 µM; in assay [7], 2820 µM; in assay [8], over 5000 µM. In addition, in assay [9], the TGI was 3890 µM.
For `NC(=O)c1cc(C2OC(CO)C(O)C2O)nn1-c1ccc([N+](=O)[O-])cc1` (configuration not stated), the TGI in assay [1], in assay [2], in [3] and in assay [9] was over 100 µM in each case.

Values taken from PubChem BioAssay (NCI).
